Holding throughout (assay): NCI tumour cell line growth inhibition, 48 h
The subject of assay [1] is A549.
For assay [2], the system named is CAKI-1.
The subject of assay [3] is CCRF-CEM.
The subject of assay [4] is HOP-62.
In assay [5] the test system is HT-29.
Assay [6] concerns K562.
Assay [7] deals with MCF7.
Assay [8] deals with Malme-3M.
For assay [9], the system named is NCI-H460.
In assay [10] the test system is NCI/ADR-RES.
Assay [11] has as its system OVCAR-3.
The test system of assay [12] is OVCAR-5.
For assay [13], the system named is RPMI-8226.
Assay [14] concerns RXF 393.
Assay [15] relates to SF-539.
Assay [16] has as its system SK-MEL-5.
Assay [17] deals with SNB-19.
Assay [18] has as its system T47D.
Assay [19] has as its system MOLT-4.

Each structure is given as a SMILES string.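 Following 48 hours of exposure in 96-well plates, responses at five concentrations were used to interpolate endpoints linearly. GI50 is the concentration that inhibits growth by half.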 Active and inactive are the calls of the source. No stated cut-off is given here; in the data, active = GI50 up to about 1.1 µM and inactive = higher. Some results are limits rather than exact numbers.

On to `CC1(C)N=C(/C(Cl)=[N+](/[O-])C(=O)c2ccc(F)cc2)C(C)(C)N1O`, for which the GI50 in [1] is 45.8 µM (inactive); in assay [2], 20.2 µM (inactive); in assay [3], 0.466 µM (active); in [4] it was 19.6 µM (inactive); in [5], 19.9 µM (inactive); in assay [6] it was 2.53 µM (inactive). In addition, the GI50 is 19.1 µM (inactive) in [7]; 16.3 µM (inactive) in [8]; 31.9 µM (inactive) in assay [9]; 36.6 µM (inactive) in assay [10]; 17 µM (inactive) in assay [11]; 18 µM (inactive) in [12]. For the same compound, the GI50 is 14.2 µM (inactive) in assay [13]; 14.8 µM (inactive) in [14]; 23.7 µM (inactive) in assay [15]; 16.4 µM (inactive) in assay [16]; > 100 µM (inactive) in assay [17]; 25.7 µM (inactive) in assay [18].

Turning to `CCOC(=O)C(Br)(C(N)=O)C1(O)OC(c2ccccc2)=C(Br)C1=O` (configuration not stated), the GI50 in assay [1] was 26.2 µM (inactive); in assay [2] it was 19.6 µM (inactive); in [3], 2.65 µM (inactive); in assay [4] it was 32.1 µM (inactive); in [5], 20.7 µM (inactive); in assay [6], 22.4 µM (inactive). The GI50 in [7] was 19.2 µM (inactive); in assay [8], 25.2 µM (inactive); in [9], > 100 µM (inactive); in assay [10], 60.3 µM (inactive); in assay [11], 25.8 µM (inactive); in assay [12], 21.1 µM (inactive). Moreover, the GI50 is 12.4 µM (inactive) in assay [13]; 19.3 µM (inactive) in assay [14]; 18.2 µM (inactive) in [15]; 22.6 µM (inactive) in assay [16]; > 100 µM (inactive) in [17]; 24.3 µM (inactive) in assay [18].

Consider `C[N+](C)(C)CC(=O)N/N=C(/CC1OC(=O)c2ccccc21)c1ccccc1O` (configuration not stated), for which the GI50 in assay [1] was 76.6 µM (inactive); in assay [2], 34.1 µM (inactive); in assay [3] it was 19 µM (inactive); in assay [4], 35.4 µM (inactive); in assay [5] it was 44.1 µM (inactive); in assay [7], 54.8 µM (inactive). The GI50 in [19] is 16.2 µM (inactive); in assay [8], 59.8 µM (inactive); in [9], 24.4 µM (inactive); in [10], 19.3 µM (inactive); in [11], 62.4 µM (inactive); in [12], > 100 µM (inactive). The GI50 in [13] is 5.94 µM (inactive); in assay [14], 28 µM (inactive); in assay [15], 20.3 µM (inactive); in [16], 46.6 µM (inactive); in assay [17] it was 46.8 µM (inactive); in [18] it was 25.6 µM (inactive).

Regarding `COc1cc(N2C(=O)C(=O)C3(CCCCC3)C2=O)cc(OC)c1OC`, the GI50 was > 100 µM (inactive) in assay [1]; > 100 µM (inactive) in assay [2]; > 100 µM (inactive) in assay [3]; 57.5 µM (inactive) in assay [4]; > 100 µM (inactive) in [5]; > 100 µM (inactive) in assay [6]. For the same compound, the GI50 in assay [7], in [19], in assay [8], in [10], in assay [11] and in assay [12] was > 100 µM (inactive) each time. For the same compound, the GI50 in assay [13], in assay [14], in assay [15], in [16], in assay [17] and in assay [18] was > 100 µM (inactive) in each case.

For the origin of these results see ChEMBL document CHEMBL1201862, “PubChem BioAssay data set” (2004).
